Data on 22 molecules can be found in patent US20080004302A1, “Novel Compounds” (ASTRAZENECA AB, priority 2006, published 2008).

Where a name gives a salt, the structure may show the parent alone.

Assay [1] has as its target T1, FGFR1 IIIc (Homo sapiens, UniProt P11362).
T1 construct: host or cells: Cos-1
Kind of assay: Cell based inhibition of transiently expressed FGFR1 IIIc phosphorylation via use of ECHO technology (Cos-1 cells). The settings on record: Cos-1 cells, phospho-FGFR1, ECHO dosing; upper bound of bin; read-out: IC50.

The target of assay [2] is T1, FGFR1 IIIc. Kind of assay: Cell based inhibition of transiently expressed FGFR1 IIIc phosphorylation (Cos-1 cells). The settings on record: Cos-1 cells, phospho-FGFR1; upper bound of bin; read-out: IC50. Here is the method:
This assay is designed to detect inhibitors of transiently expressed FGFR1 phosphorylation by antibody staining of fixed cells detected using ArrayScan technology.
To undertake the assay, Cos-1 cells were harvested at 90-95% confluence for cell transfection. For each 96-well plate, 24 ul Lipofectamine 2000 was added to 809 ul OptiMEM and incubated at room temperature for 5 minutes. […] Equal volumes of DNA and Lipofectamine 2000 were combined (DNA: Lipid=1:1.2 ratio) and incubated at room temperature for 20 minutes.
The harvested Cos-1 cells are counted using a coulter counter and diluted further with 1% FCS/DMEM to 2.5×10^5 cells/ml. For each 96-well, 8.33 ml cells were required. […] Media was removed from the wells using vacuum aspiration; cells were fixed by adding 50μl of 100% methanol to each well and incubated at room temperature for 20 minutes.
The plates were read on an Arrayscan (Cellomics).

A further assay concerns the target FGFR1 kinase (Homo sapiens, UniProt P11362). Kind of assay: Kinase assay (using Caliper technology). The class given is biochemical. The settings on record: FGFR1 kinase, Caliper; upper bound of bin; read-out: IC50. Put shortly:
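Human FGFR1 kinase activity measured with a 13-mer fluorescently tagged FGFR1-specific peptide substrate; compounds serially diluted in 5% (v/v) DMSO. Reactions ran 1.5 h at room temperature, stopped with EDTA-containing HEPES pH 7.5 buffer. Phosphorylated and unphosphorylated peptide separated by microfluidic mobility shift.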

The subject of another assay is Erk phosphorylation. Kind of assay: Growth factor (bFGF) stimulated Erk phosphorylation in NIH 3T3 cells. The settings on record: Mus musculus.
Another assay deals with T2, human IGF1R (Homo sapiens, UniProt P08069).
T2 construct: expressed in transfected cells; host or cells: R+ cells (R- mouse fibroblasts transfected with human IGF1R)
Kind of assay: Inhibition of insulin-like growth factor-1 receptor phosphorylation in R+ cells. The assay is classed as cell-based. The settings on record: 30 nM IGF1, read-out: IGF cell class.

Setting [3] is: NIH3T3, NIH 3T3 cells, 3 ng/ml bFGF, upper bound of bin.

FGFR1 kinase, sequence (P11362 22-822): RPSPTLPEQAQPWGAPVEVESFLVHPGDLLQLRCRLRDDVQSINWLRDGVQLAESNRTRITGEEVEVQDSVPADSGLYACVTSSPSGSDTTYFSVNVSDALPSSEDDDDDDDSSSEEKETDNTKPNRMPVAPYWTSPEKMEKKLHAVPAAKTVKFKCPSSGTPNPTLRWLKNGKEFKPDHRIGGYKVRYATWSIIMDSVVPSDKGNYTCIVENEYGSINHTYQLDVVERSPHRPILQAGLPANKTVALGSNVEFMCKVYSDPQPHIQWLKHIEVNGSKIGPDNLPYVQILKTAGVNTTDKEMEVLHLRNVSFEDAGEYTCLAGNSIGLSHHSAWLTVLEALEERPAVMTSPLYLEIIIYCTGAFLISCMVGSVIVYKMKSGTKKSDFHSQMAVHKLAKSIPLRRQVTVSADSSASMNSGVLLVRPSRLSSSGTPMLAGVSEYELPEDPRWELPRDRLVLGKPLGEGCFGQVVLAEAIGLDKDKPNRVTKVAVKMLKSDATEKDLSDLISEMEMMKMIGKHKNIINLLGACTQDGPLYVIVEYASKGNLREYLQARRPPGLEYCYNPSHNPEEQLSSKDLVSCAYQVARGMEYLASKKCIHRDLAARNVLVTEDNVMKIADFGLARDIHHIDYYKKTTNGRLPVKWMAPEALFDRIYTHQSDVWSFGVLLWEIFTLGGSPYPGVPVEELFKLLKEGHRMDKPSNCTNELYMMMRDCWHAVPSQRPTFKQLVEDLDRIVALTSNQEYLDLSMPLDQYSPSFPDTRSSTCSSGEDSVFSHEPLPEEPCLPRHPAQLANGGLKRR
T1 sequence (P11362 22-822): as above
T2 sequence (P08069 31-1367): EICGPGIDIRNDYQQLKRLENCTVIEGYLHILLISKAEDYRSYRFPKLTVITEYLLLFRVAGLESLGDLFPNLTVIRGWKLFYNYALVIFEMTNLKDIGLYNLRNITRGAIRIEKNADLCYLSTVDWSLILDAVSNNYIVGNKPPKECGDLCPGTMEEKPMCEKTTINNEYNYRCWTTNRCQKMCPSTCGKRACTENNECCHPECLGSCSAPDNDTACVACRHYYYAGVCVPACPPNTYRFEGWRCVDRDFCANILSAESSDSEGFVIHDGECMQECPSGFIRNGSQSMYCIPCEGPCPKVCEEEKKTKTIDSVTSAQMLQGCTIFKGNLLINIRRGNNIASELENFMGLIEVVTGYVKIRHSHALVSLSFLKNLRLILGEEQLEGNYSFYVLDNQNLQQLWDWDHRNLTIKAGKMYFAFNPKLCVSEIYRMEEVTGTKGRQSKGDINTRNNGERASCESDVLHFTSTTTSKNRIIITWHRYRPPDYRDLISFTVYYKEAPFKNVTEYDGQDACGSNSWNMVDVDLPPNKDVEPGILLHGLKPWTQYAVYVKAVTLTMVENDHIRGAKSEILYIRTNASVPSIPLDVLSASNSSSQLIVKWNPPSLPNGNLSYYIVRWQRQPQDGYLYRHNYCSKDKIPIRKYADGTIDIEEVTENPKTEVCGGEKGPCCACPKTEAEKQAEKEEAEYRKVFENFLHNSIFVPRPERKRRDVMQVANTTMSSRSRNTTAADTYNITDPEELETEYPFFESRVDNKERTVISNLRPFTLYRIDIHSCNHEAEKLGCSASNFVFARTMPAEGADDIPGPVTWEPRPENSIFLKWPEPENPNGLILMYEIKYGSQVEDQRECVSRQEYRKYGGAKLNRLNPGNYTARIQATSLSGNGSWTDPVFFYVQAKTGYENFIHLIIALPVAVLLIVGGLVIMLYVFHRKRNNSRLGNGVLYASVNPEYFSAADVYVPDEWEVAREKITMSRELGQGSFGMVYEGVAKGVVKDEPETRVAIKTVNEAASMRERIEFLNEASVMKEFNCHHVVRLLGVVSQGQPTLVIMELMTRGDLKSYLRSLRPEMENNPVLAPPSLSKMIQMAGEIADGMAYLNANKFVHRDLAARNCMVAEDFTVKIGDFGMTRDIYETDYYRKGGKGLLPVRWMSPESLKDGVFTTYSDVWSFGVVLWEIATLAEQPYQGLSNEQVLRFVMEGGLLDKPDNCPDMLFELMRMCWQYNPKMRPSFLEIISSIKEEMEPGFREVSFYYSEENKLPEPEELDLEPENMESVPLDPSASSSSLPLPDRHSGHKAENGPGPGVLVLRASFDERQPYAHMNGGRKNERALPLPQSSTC
From the text for Erk phosphorylation: These and other assays were used to evaluate the ability of a test compound to inhibit growth factor stimulated cellular signalling in mammalian cell lines. This was achieved by measuring the amount of receptor tyrosine kinase regulated Erk phosphorylation within a cell following compound treatment.
NIH 3T3 (ECACC, 93061524) cells were routinely passaged in DMEM (Gibco BRL, 41966) plus 10% foetal calf serum (FCS), 1% L-glutamine (Gibco BRL, 25030) to a confluence not greater than 80%. To undertake the assay, NIH 3T3's were seeded at 1×10^4 cells/well in DMEM plus 10% foetal calf serum, 1% L-glutamine in 96 well plates (Costar, 3904) and incubated at 37° C. (+5% CO2) in a humidified incubator. Once the cells had fully adhered (typically following 4-5 hours incubation) the media was removed from each well and the cells gently washed with 100μl warm serum free media. 90μl of serum free DMEM plus 1% L-glutamine was then added to each well and the plates were returned to a humidified 37° C. (+5% CO2) incubator. The following day, the plates were dosed with 10[l compound (diluted from 10 mM stock in DMSO using serum free DMEM) and the plates were returned to a humidified 37° C. (+5% CO2) incubator for one hour. NIH 3T3 cells were then stimulated with a final concentration of 3 ng/ml bFGF (Sigma, F029 1) for 20 minutes at 37° C. Following stimulation the cells were fixed by adding formaldehyde (4% v/v final concentration) and incubating at room temperature for 20 minutes. The fixative solution was then removed and the wells were washed twice with 100μl phosphate buffered saline (PBS/A) before permeabilising the cells by the addition of 50 μl/well 0.1% triton/PBS/A for 10 minutes at room temperature. The permeabilisation solution was then removed and the cells washed twice more with 100 μl/well PBS/A before the addition of 50 μl/well anti-phospho p44/42 (Cell Signalling Technology, 9106), diluted 1/500 with PBS/A plus 10% FCS. The anti-phospho p44/42 antibody recognises Erk phosphorylated at threonine 202 and tyrosine 204. […] Finally, the plates were washed three times with 100 μl/well PBS/A, leaving the final wash in the wells before sealing the plates. The plates were read at 350 nm and 488 nm using an Arrayscan (Cellomics).

Turning to `Cc1cc(CNc2nccc(Nc3cc(C4CCCC4)[nH]n3)n2)on1` [Example 13, N′-(5-cyclopentyl-2H-pyrazol-3-yl)-N-[(3-methyl-1,2-oxazol-5-yl)methyl]pyrimidine-2,4-diamine], the IC50 at FGFR1 IIIc [1] is less than 1000 nM; at FGFR1 IIIc [2], less than 200 nM.

On to `c1cc(Nc2cc(C3CCCC3)[nH]n2)nc(NCc2cc(C3CC3)no2)n1` [Example 14, N′-(5-cyclopentyl-2H-pyrazol-3-yl)-N-[(3-cyclopropyl-1,2-oxazol-5-yl)methyl]pyrimidine-2,4-diamine], for which the IC50 on FGFR1 IIIc [1], on FGFR1 IIIc [2] and at FGFR1 kinase was less than 200 nM each time.

As for `CC(C)Cc1cc(Nc2ccnc(NCc3cc(C4CC4)no3)n2)n[nH]1` [Example 16, N-[(3-cyclopropyl-1,2-oxazol-5-yl)methyl]-N′-[5-(2-methylpropyl)-2H-pyrazol-3-yl]pyrimidine-2,4-diamine], the IC50 on FGFR1 IIIc [1] is less than 200 nM; at FGFR1 IIIc [2], less than 1000 nM; on FGFR1 kinase, less than 200 nM.

`COc1ccccc1CCc1cc(Nc2ccnc(NCc3cc(C)no3)n2)n[nH]1` [Example 31, N′-[5-[2-(2-methoxyphenyl)ethyl]-1H-pyrazol-3-yl]-N-[(3-methyl1,2-oxazol-5-yl)methyl]pyrimidine-2,4-diamine hydrochloride]: the IC50 in the assay with Erk phosphorylation (setting [3]) is less than 10000 nM; at human IGF1R it was more than 10000 nM; at FGFR1 IIIc [2] it was less than 10000 nM; on FGFR1 kinase, less than 1000 nM.

For `Cc1cc(CNc2nccc(Nc3cc(COc4ccccc4)[nH]n3)n2)on1` [Example 34, N-[(3-methyl-1,2-oxazol-5-yl)methyl]-N′-[5-(phenoxymethyl)-2H-pyrazol-3-yl]pyrimidine-2,4-diamine], the IC50 in the assay on Erk phosphorylation (setting [3]) was less than 10000 nM; on human IGF1R, more than 10000 nM; at FGFR1 IIIc [2], less than 10000 nM; on FGFR1 kinase, less than 10000 nM.

In the case of `COc1ccc(CCc2cc(Nc3ccnc(NCc4cc(C)no4)n3)n[nH]2)cc1OC` [Example 46, N′-[5-[2-(3,4-dimethoxyphenyl)ethyl]-1H-pyrazol-3-yl]-N-[(3-methyl1,2-oxazol-5-yl)methyl]pyrimidine-2,4-diamine hydrochloride], the IC50 with Erk phosphorylation (NIH3T3) is less than 10000 nM; at human IGF1R it was 1000 to 10000 nM; on FGFR1 IIIc [2], less than 10000 nM.

As for `Oc1cccc(CCc2cc(Nc3ccnc(NCc4cc(C5CC5)no4)n3)n[nH]2)c1` [Example 56, 3-[2-[5-[[2-[(3-cyclopropyl-1,2-oxazol-5-yl)methylamino]pyrimidin-4-yl]amino]-1H-pyrazol-3-yl]ethyl]phenol], the IC50 at FGFR1 IIIc [1] was less than 200 nM; at human IGF1R, 1000 to 10000 nM; on FGFR1 IIIc [2], less than 200 nM; on FGFR1 kinase, less than 200 nM.

For the molecule `Cc1cc(CNc2nccc(Nc3cc(CCc4cc(F)cc(Cl)c4)[nH]n3)n2)on1` [Example 57, N′-[5-[2-(3-chloro-5-fluoro-phenyl)ethyl]-2H-pyrazol-3-yl]-N-[(3-methyl-1,2-oxazol-5-yl)methyl]pyrimidine-2,4-diamine], the IC50 at FGFR1 IIIc [1] is less than 1000 nM; at FGFR1 IIIc [2], less than 200 nM; at FGFR1 kinase, less than 1000 nM.

For the molecule `Cc1cc(CNc2nccc(Nc3cc(CCc4cccc(CN)c4)[nH]n3)n2)on1` [Example 58, N′-[5-[2-[3-(aminomethyl)phenyl]ethyl]-1H-pyrazol-3-yl]-N-[(3-methyl-1,2-oxazol-5-yl)methyl]pyrimidine-2,4-diamine], the IC50 on FGFR1 IIIc [1] is less than 30000 nM; on FGFR1 IIIc [2] it was less than 30000 nM; at FGFR1 kinase it was less than 1000 nM.

For the molecule `Cc1cc(CNc2nccc(Nc3cc(CCc4cccc(C(=O)N(C)C)c4)[nH]n3)n2)on1` [Example 59, N,N-dimethyl-3-[2-[5-[[2-[(3-methyl-1,2-oxazol-5-yl)methylamino]pyrimidin-4-yl]amino]-2H-pyrazol-3-yl]ethyl]benzamide], the IC50 on FGFR1 IIIc [1] is less than 30000 nM; on FGFR1 IIIc [2], less than 30000 nM; at FGFR1 kinase, less than 1000 nM.

For the molecule `COc1ncc(CCc2cc(Nc3ccnc(NCc4cc(C)no4)n3)n[nH]2)c(OC)n1` [Example 60, N′-[5-[2-(2,4-dimethoxypyrimidin-5-yl)ethyl]-1H-pyrazol-3-yl]-N-[(3-methyl-1,2-oxazol-5-yl)methyl]pyrimidine-2,4-diamine], the figures for the IC50 on human IGF1R, on FGFR1 IIIc [2] and on FGFR1 kinase were more than 10000 nM, less than 30000 nM and less than 1000 nM, respectively.

For `COc1cccc(CCc2cc(Nc3ccnc(NCc4cc(CO)no4)n3)[nH]n2)c1` [Example 61, [5-[[[4-[[5-[2-(3-methoxyphenyl)ethyl]-2H-pyrazol-3-yl]amino]pyrimidin-2-yl]amino]methyl]-1,2-oxazol-3-yl]methanol], the figures for the IC50 on human IGF1R, on FGFR1 IIIc [2] and at FGFR1 kinase were more than 10000 nM, less than 1000 nM and less than 200 nM, respectively.

Regarding `COc1cc(CCc2cc(Nc3ccnc(NCc4cc(C)no4)n3)n[nH]2)c(F)cn1` [Example 62, N′-[5-[2-(5-fluoro-2-methoxy-pyridin-4-yl)ethyl]-1H-pyrazol-3-yl]-N-[(3-methyl-1,2-oxazol-5-yl)methyl]pyrimidine-2,4-diamine hydrochloride], the IC50 on FGFR1 IIIc [1] is less than 1000 nM; on human IGF1R, more than 10000 nM; at FGFR1 IIIc [2] it was less than 1000 nM; at FGFR1 kinase it was less than 1000 nM.

As to `CN(C)Cc1cc(CNc2nccc(Nc3cc(CCc4cccc(O)c4)n[nH]3)n2)on1` [Example 63, 3-[2-[5-[[2-[[3-(dimethylaminomethyl)-1,2-oxazol-5-yl]methylamino]pyrimidin-4-yl]amino]-1H-pyrazol-3-yl]ethyl]phenol], the IC50 on FGFR1 IIIc [1] is less than 10000 nM; at FGFR1 IIIc [2], less than 10000 nM; at FGFR1 kinase, less than 200 nM.

Take `CNC(=O)c1cc(CNc2nccc(Nc3cc(CCc4cccc(OC)c4)n[nH]3)n2)on1` [Example 64, 5-[[[4-[[5-[2-(3-methoxyphenyl)ethyl]-2H-pyrazol-3-yl]amino]pyrimidin-2-yl]amino]methyl]-N-methyl-1,2-oxazole-3-carboxamide]: the IC50 was less than 10000 nM on FGFR1 IIIc [1], less than 10000 nM on FGFR1 IIIc [2] and less than 1000 nM at FGFR1 kinase.

As to `CNC(=O)c1cc(CNc2nccc(Nc3cc(CCc4cccc(O)c4)n[nH]3)n2)on1` [Example 65, 5-[[[4-[[5-[2-(3-hydroxyphenyl)ethyl]-2H-pyrazol-3-yl]amino]pyrimidin-2-yl]amino]methyl]-N-methyl-1,2-oxazole-3-carboxamide], the IC50 on FGFR1 IIIc [1] was less than 10000 nM; at human IGF1R it was 1000 to 10000 nM; at FGFR1 IIIc [2] it was less than 10000 nM; at FGFR1 kinase, less than 200 nM.

For `CC(C)Oc1cc(Nc2ccnc(NCc3cc(C(N)=O)no3)n2)[nH]n1` [Example 78, 5-[[[4-[(5-propan-2-yloxy-2H-pyrazol-3-yl)amino]pyrimidin-2-yl]amino]methyl]-1,2-oxazole-3-carboxamide], the IC50 was less than 1000 nM with Erk phosphorylation (setting [3]), less than 10000 nM on FGFR1 IIIc [2] and less than 200 nM at FGFR1 kinase.

Consider `CC(C)Oc1cc(Nc2ccnc(NCc3cc(C4CCC4)no3)n2)n[nH]1` [Example 102, N-[(3-cyclobutyl-1,2-oxazol-5-yl)methyl]-N′-(5-propan-2-yloxy-1H-pyrazol-3-yl)pyrimidine-2,4-diamine], for which the IC50 was less than 200 nM on FGFR1 IIIc [1], 100 to 1000 nM on human IGF1R, less than 200 nM on FGFR1 IIIc [2] and less than 200 nM at FGFR1 kinase.

For `c1ccc(COc2cc(Nc3ccnc(NCc4cc(C5CC5)no4)n3)n[nH]2)cc1` [Example 103, N-[(3-cyclopropyl-1,2-oxazol-5-yl)methyl]-N′-(5-phenylmethoxy-2H-pyrazol-3-yl)pyrimidine-2,4-diamine], the IC50 at FGFR1 IIIc [1] is less than 200 nM; on human IGF1R, 1000 to 10000 nM; on FGFR1 IIIc [2] it was less than 200 nM; at FGFR1 kinase, less than 200 nM.

Turning to `Cc1cc(CNc2nccc(Nc3cc(OCc4ccoc4)[nH]n3)n2)on1` [Example 108, N′-[5-(3-furylmethoxy)-1H-pyrazol-3-yl]-N-[(3-methyl1,2-oxazol-5-yl)methyl]pyrimidine-2,4-diamine], the IC50 with Erk phosphorylation (setting [3]) was less than 1000 nM; on FGFR1 IIIc [2], less than 10000 nM; on FGFR1 kinase, less than 200 nM.

As to `Cc1cc(CNc2nccc(Nc3cc(CCc4ccncc4)[nH]n3)n2)on1` [Example 116, N-[(3-methyl-1,2-oxazol-5-yl)methyl]-N′-[5-(2-pyridin-4-ylethyl)-2H-pyrazol-3-yl]pyrimidine-2,4-diamine], the IC50 was more than 10000 nM at human IGF1R, less than 30000 nM at FGFR1 IIIc [2] and less than 10000 nM on FGFR1 kinase.

`c1coc(-c2cc(Nc3ccnc(NCc4cc(C5CC5)no4)n3)n[nH]2)c1` [Example 120, N-[(3-cyclopropyl-1,2-oxazol-5-yl)methyl]-N′-[5-(2-furyl)-2H-pyrazol-3-yl]pyrimidine-2,4-diamine]: the IC50 at FGFR1 IIIc [1] is less than 200 nM; at human IGF1R it was 1000 to 10000 nM; at FGFR1 IIIc [2], less than 1000 nM; at FGFR1 kinase, less than 200 nM.
